Legend:
[1] = system: Plasmodium falciparum, Sierra Leone clone; assay: Increase in parasitemia by light microscopy (Giemsa-stained smears), Sierra Leone clone; assay type: cell-based, P. falciparum; conditions: Table 2, light microscopy
Protocol: Additionally, parasite-infected and treated erythrocytes can be smeared on microscope slides, stained with, e.g., Giemsa stain, and the ratio of infected to non-infected erythrocytes determined.
(§1) The chloroquine-sensitive Sierra Leone clone of P. falciparum was cultured in erythrocytes as in Example 1 above. In one method of determining the toxicity of 5-fluoro-orotate, [G-^3 H]-hypoxanthine uptake was used as an indicator of parasite proliferation, according to the procedure of Example 1 above. In a second method, the increase in parasitemia was determined directly by smearing infected erythrocytes on microscope slides, staining with Giemsa stain, and determining the ratio of infected to non-infected erythrocytes. In a third method, parasite-infected erythrocytes were incubated with [U-^14 C]-isoleucine (0.5 μCi; 0.33 Ci/mmol), and the amount of radioactivity incorporated into precipitable proteins determined.

[2] = system: Plasmodium falciparum, Sierra Leone clone; assay: [U-14C]-isoleucine incorporation into parasite protein, Sierra Leone clone; assay type: cell-based, P. falciparum; conditions: Table 2, isoleucine uptake
Protocol: 3. […] Agents Chemotherap., 16:710-18 (1979)].
as §1

mammalian cell lines = assay: Toxicity to a battery of mammalian cell lines; assay type: cell-based, human and mouse
From the text: 2. Effects of orotate analogues on cell viability and the ability to synthesize nucleic acids from radioactive precursors, and the rescuing effects of normal pyrimidine bases or nucleosides or amino acid derivatives such as histidinol, can be tested in human-derived tissue culture cell lines. Human HT-1080 human sarcoma cells [Rusheed, S., et al., Cancer, 33:1027-30 (1974)], human diploid IMR-90 cells [Nichols, W. W., et al., Science, 196:60-3 (1977)], human cervical […] HeLa S3 cells [Puck, T. T., et al., J. Exp. Med., 103:273-84 (1956)], HL-60 human myeloid leukemia cells [Collins, S. J., et al., Nature, 270:347-9 (1977)], and mouse leukemia L-1210 cells [Moore, G. E., J. Nat. […] The growth medium most suitable for each cell line can be determined by reference to the publications cited above: briefly, HT-1080 cells are maintained in Eagle's Minimal Essential Medium (EMEM) supplemented with 5% fetal bovine serum (FBS) and 2 mM L-glutamine; IMR-90 cells are grown in EMEM supplemented with 10% FBS, 10 mM Hepes buffer, 0.21% NaHCO3, and 2 mM L-glutamine. […]
Toxicity of pyrimidine analogues to cultured human cells is determined as follows. […] Thereafter, the number of cells in each well is determined. […] Cells that grow in suspension (e.g., HL-60 and L-1210 cells) are transferred to centrifuge tubes, pelleted at low speed, washed, and the viability determined as above. […]

## O=C(O)c1[nH]c(=O)[nH]c(=O)c1F [5-fluoro-orotate]
[1]
  IC50: 2.5 nM
[2]
  IC50: 4.7 nM
Mammalian cell lines; 0.1 to 1 μM, in culture
  toxicity to rapidly dividing mammalian cells: not toxic to rapidly dividing mammalian cells in culture
Mammalian cell lines; read-out: IC50 range over the mammalian cell lines
  IC50: 900 to 10000 nM
